The structures appear in SMILES notation.

From ChEMBL document CHEMBL5107949, “Design, synthesis, and antibacterial activity of N-(trifluoromethyl)phenyl substituted pyrazole derivatives” (RSC Med Chem, 2021) come the findings set out here.

This experiment concerns Staphylococcus aureus. Kind of experiment: Inhibition of lipid synthesis in Staphylococcus aureus ATCC 29213 at 8 times MIC preincubated for 30 mins followed by [3H]-glycerol and measured after 50 mins by [3H]-glycerol incorporation based beta scintillation counter analysis. The format is functional. To be noted: time 80 min; 1.333 h.

Regarding `C/C=C/C/C=C/CCC(=O)[C@H]1O[C@H]1C(N)=O` [CERULENIN], the “inhibition (INH)” value is listed as 71.9%.
